Results published in patent US20230255906A1, “Targeting Serpin B9 in Cancer” (The Brigham and Women`s Hospital, Inc., priority 2020, published 2023).

Assays:
MBP-Sb9 = molecular target: T1, MBP-Sb9 (Homo sapiens, UniProt P50453); assay: Saturation-Transfer Difference (STD) NMR assay; format: binding
T1 construct: made in house
T1 sequence (P50453 2-376): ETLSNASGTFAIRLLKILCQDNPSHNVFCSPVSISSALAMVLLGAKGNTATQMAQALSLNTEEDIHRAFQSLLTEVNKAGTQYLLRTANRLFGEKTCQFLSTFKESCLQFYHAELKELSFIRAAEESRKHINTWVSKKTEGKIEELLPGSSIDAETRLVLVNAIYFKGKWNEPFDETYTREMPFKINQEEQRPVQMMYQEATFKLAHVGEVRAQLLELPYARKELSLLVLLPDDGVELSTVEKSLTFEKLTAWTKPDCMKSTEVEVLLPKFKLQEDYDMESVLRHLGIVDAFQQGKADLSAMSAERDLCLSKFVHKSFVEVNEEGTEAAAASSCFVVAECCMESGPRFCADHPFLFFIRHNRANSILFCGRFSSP
From the text: The Saturation-Transfer Difference (STD) NMR assay was used to evaluate the binding of the compound of Formula (III) to Sb9. […] The saturation period was 3.0 seconds with irradiation at 0 ppm (on-resonance excitation) and −20 ppm (off-resonance excitation). The number of scans was 160 for the on and off-resonance spectra, respectively. Spectra were processed using Topspin software and apodized with exponential multiplication with 1.0 Hz line-broadening.
The Saturation-Transfer Difference (STD) NMR assay was used to evaluate the binding of the compounds of Formulas (I) and (II) to Sb9. […] The saturation period was 3.0 seconds with irradiation at 0.7 ppm (on-resonance excitation) and 20 ppm (off-resonance excitation). The number of scans was 800. The spectra were processed using Topspin software with 1.0 Hz line-broadening.
The Saturation-Transfer Difference (STD) NMR assay as described herein was used to evaluate the binding of the compound of Formula (III) to Sb9.

[1] = tested on: B16-WT mouse melanoma tumors; assay: B16 melanoma tumor model in C57BL/6 mice; format: in vivo
Procedure: Mice were anesthetized with isoflurane, and tumor cell lines (B16, A375, and 4T1) were gently injected subcutaneously in the flanks or mammary glands of mice. One hundred thousand cells (1×10^5 cells) were injected per mouse for most of the experiments. However, twenty-five thousand cells (25×10^3 cells) were injected per mouse for the experiments using the compound of Formula (III). Upon 4 hrs post-implantation, 300 μg of the compound of Formula (III) was administered twice a day intraperitoneally for 14 days. Tumor growth was monitored three times per week by digital caliper (Fisherbrand™ Traceable™ Digital Calipers).
The anti-tumor activity of the compound of Formula (III) in vivo was assessed. […] Treatment with the compound of Formula (III) increased the median survival time (MST) of mice bearing B 16-WT mouse melanoma tumors and receiving treatment with the compound of Formula (III) as compared to mice bearing B16-WT melanoma tumors and not receiving treatment (MST=39 days vs MST=26 days, respectively) (FIG. 51B). Next, the effect of the compound of Formula (III) on tumor immunity was examined.
The efficacy of the compound of Formula (III) was assessed in C57BL/6J mice (FIG. 18). B16 mouse melanoma cells were implanted subcutaneously into the right flanks of C57BL/6J mice, and the mice were randomized into three groups: (1) no treatment (control), (2) treatment with anti-PD1, and (3) treatment with Formula (III). The mice in the anti-PD1 group received 200 μg of anti-PD1 iv every 3 days, and those in the Formula (III) group received 300 μg of Formula (III) twice a day consecutively for 14 days.
A survival study using the compound of Formula (IV) in mice harboring B16 melanoma was performed. Mice implanted with B16 tumors were treated with the compound of Formula (IV) (n=8) and compared to a control group having B16 tumors and not receiving treatment with the compound of Formula (IV) (n=8).

[2] = In vivo toxicity (CBC, serum chemistry, H&E); set-up: species or system mouse; details: 300 μg i.p. twice a day for 14 days
Procedure: To further assess the in vivo toxicity of the compound of Formula (III), 300 μg of the compound of Formula (III) was administered twice a day intraperitoneally for 14 days.

Sb9-GrB complex = molecular target: T2, Sb9-GrB complex (Mus musculus, UniProt F7A2V8); assay: Western blot of Sb9-GrB complex in B16 cells; format: cell-based; details: 50 μM, 200 μM, 600 μM, concentration-dependent
T2 construct: endogenous in cells
Procedure: FIG. 4G. […] Sb9-GrB complex (com), unbound Sb9 (mono), and complex degradation products or cleaved Sb9 (deg) are indicated by arrows. GAPDH was used as a loading control for protein normalization.
Lysates of cells and tissues were measured using the Bradford assay. Equal amounts of protein were separated by SDS-PAGE and transferred to a PVDF membrane. The membranes were immunoblotted with the following specific antibodies: anti-rabbit IgG-HRP (Sigma-Aldrich), anti-rat IgG-HRP (Sigma-Aldrich), and anti-GAPDH (Sigma-Aldrich), using standard protocols. The blots were developed with West Dura chemiluminescent substrates using a Bio-Rad ChemiDoc imaging system.

B16-Sb9 KO cells = assay: RT-PCR gene expression in B16-Sb9 KO cells; format: cell-based, mouse
Procedure: Total RNA was prepared from cells using the Quick-RNA MiniPrep kit (Zymo Research, Irvine, Calif., USA), according to the manufacturer's instructions. cDNA was prepared from total RNA using SuperScript III Reverse Transcriptase (Invitrogen). Following reverse transcription, quantitative PCR was performed using a cycling profile consisting of 95° C. for 2 min (Stage I), 30 cycles of 95° C. for 20 s, 58° C. for 30 s, and 70° C. for 30 s (Stage II), and 65° C. for 5 s (Stage III). Fold changes were determined by subtracting Cq values of the loading control from the Cq values of the gene of interest. The results were normalized to untreated controls.
To evaluate the off-target effects of the compound of Formula (III) to Sb9 proteins, the B16-Sb9 KO melanoma cells were treated with various concentrations of the compound of Formula (III). […] Furthermore, the antitumor effects of the compound of Formula (III) on the Sb9 KO mice bearing B16-Sb9 KO tumors, as compared to control group were not observed (FIG. 5N).

[3] = 17 days post-implantation, flow cytometry

T2 sequence (F7A2V8 1-374, one chain of several): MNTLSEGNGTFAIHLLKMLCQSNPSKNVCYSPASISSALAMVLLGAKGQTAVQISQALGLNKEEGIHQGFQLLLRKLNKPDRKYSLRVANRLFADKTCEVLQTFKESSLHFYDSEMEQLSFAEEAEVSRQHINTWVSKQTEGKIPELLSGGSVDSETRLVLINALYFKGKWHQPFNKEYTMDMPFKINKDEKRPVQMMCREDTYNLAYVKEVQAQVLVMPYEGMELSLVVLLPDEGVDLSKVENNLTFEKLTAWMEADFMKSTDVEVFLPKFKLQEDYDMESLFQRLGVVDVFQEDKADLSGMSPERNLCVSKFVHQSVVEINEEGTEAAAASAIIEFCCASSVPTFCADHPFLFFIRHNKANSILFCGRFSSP

In the case of `O=C(O)c1ccc2ncoc2c1` [Formula (III), 1,3-benzoxazole-6-carboxylic acid], the “binding to MBP-Sb9 by STD NMR” value (MBP-Sb9; 420 μM compound, 45 μM Sb9 protein, PBS pH 7.0, 25° C.) is reported as “confirmed the binding activity”, the “pH dependence of binding to MBP-Sb9 by STD NMR” value (MBP-Sb9; 450 μM compound, 45 μM Sb9, various pH values) is reported as “enhanced significantly at lower pH” and the “level of effector IFNγ+ CD4+ cells in TME” value ([1]; 17 days post-implantation) is reported as “increased level”. The “level of immunosuppressive IL10+CD4+ and IL10+CD8+ cells in TME” value ([1]; 17 days post-implantation) was “decreased level”, the “levels of immunosuppressive Tregs, TAMs, and MDSCs in melanoma vs control” value [1, 3] was “significantly lower” and the “populations of CD44+ CD62L− (effector memory) CD8+, GrB+ CD8+ and IFNγ+ CD8+ in melanoma vs control” value [1, 3] was “significantly higher”. For the same molecule, the “median survival time (MST)” value ([1]; B16-WT tumors, 300 μg i.p. bid for 14 days (FIG. 5B)) was 39 days, the “median survival time (MST)” value ([1]; C57BL/6J, FIG. 18, Formula (III) 300 μg twice a day 14 days, anti-PD1 200 μg iv every 3 days) was 36 days and the “reduction of size of B16 tumors vs control” value ([1]; C57BL/6 mice, 300 μg i.p. bid for 14 days) was 3.7 fold. For the same molecule, the “CBC: WBC, HGB, and PLT vs control” value [2] was “no significant difference”, the “serum AST, ALT, CRE, and ALB levels vs control” value [2] was “similar” and the “toxicity to liver, kidney, lung, and heart tissues (H&E staining)” value [2] was “no toxicity”. The “expression of the Sb9-GrB complex” value (Sb9-GrB complex) was “reduced the expression of the Sb9-GrB complex” and the “gene expression of caspase-3/8, P53, and Bcl-2” value (B16-Sb9 KO cells) was “no significant effect”.
